From patent US11175294B2, “Protein composition and methods for analysing microbiota” (UNIVERSITY OF OTTAWA, priority 2016, dated 2021)

Assays:
[1] = system: human microbiota; assay: SILAMi-based metaproteomics of microbiota cultured with or without monosaccharides; format: cell-based; details: 2.5 g/L monosaccharide vs non-treated control; for overall effect on the metaproteome: 3,158 quantified proteins
Description: Finally, it was tested whether the […] labelled-standard could be used to distinguish the effects of different monosaccharides on the microbiota. It will be understood that monosaccharides are used herein as an example of a compound that may have an effect on the microbiota. However, other compounds that have be introduced to a microbiota sample or to a subject of which a microbiota sample has been obtained, that may impact the microbiota, may be similarly analyzed as described herein. Overall, 18 samples cultured with or without 2.5 g/L of each monosaccharide (N-acetyl glucosamine or GlcNAc, mannose, galactose, fucose, or glucose) were analyzed, by […]-based metaproteomics which led to 3,158 quantified proteins. Two hundred and forty-six protein groups were identified as being differentially abundant as compared to the non-treated control group (Table 4): […]

[2] = system: Akkermansia spp; details: reported in other literature; cited from earlier work
[3] = system: Akkermansia genus species in cultured microbiome; assay: RapidAIM assay of an individual microbiome treated with berberine, species-level taxonomic quantification on MetaLab; format: cell-based; details: high concentration vs sample cultured without drug treatment
Source text: Developing RapidAIM in a multi-well plate format: microbiota can be inoculated and grown in culture media. Assays, performed in any multiwall format (e.g. 6 well to 96 well plate formats, or any other type of format, for example, using tubes) and can be titrated, examining at each stage whether the yield per well provides sufficient material for downstream analyses. The analysis can be performed using a workflow for metaproteome as described in Zhang et al. “MetaPro-IQ: a universal metaproteomic approach to studying human and mouse gut microbiota”, Microbiome, 2016 Jun. 24:4(1):31, doi: 10.1186/s40168-016-0176-z. The workflow uses the close-to-complete human or mouse gut microbial gene catalog as a database and uses an iterative database search strategy. An example of a high-through put experimental workflow for the RapidAIM has been established based on a 96-well format (FIG. 9). This workflow includes, (A) 96-well based microbiome culturing, and (B) 96-well based metaproteomics analysis.
As an example, RapidAIM was used to assay an individual a microbiome treated with a high, medium or low dose of berberine compared to the sample cultured without drug treatment (FIG. 10). The taxonomic composition at the species level were quantified in each of the cultured microbiome sample on the MetaLab bioinformatics platform.

C[C@H](O)[C@@H](O)[C@@H](O)[C@H](O)C=O [fucose]
change of cluster 206, mainly fucose utilization-related proteins [1]: increased only in the fucose-treated microbiota | change of quantified fucose utilizing proteins in the fucose utilization pathway [1]: all of the six quantified fucose utilizing proteins in the fucose utilization pathway were increased | overall effect on the metaproteome [1]: smallest effect on the metaproteome

CC(=O)N[C@H]1C(O)O[C@H](CO)[C@@H](O)[C@@H]1O (some centres unmarked) [GlcNAc, N-acetyl glucosamine]
change of GlcNAc degrading proteins [1]: significant increase | change of asparagine synthase [1]: significantly increased | overall effect on the metaproteome [1]: most dramatic alterations of the metaproteome

CN(C)C(=N)N=C(N)N [Metformin]
Akkermansia spp in the gut microbiome [2]: increased

COc1ccc2cc3[n+](cc2c1OC)CCc1cc2c(cc1-3)OCO2 [Berberine]
abundances of the species originating from the Akkermansia genus [3]: significantly increased
